According to patent publication US9682995B2, “Amino-substituted isothiazoles” (BAYER PHARMA AKTIENGESELLSCHAFT, priority 2013, dated 2017):

Assays:
Assay in all cases: Kinase Profiling (KINOMEscan)
Assay type in all cases: binding
[1] = target: 456 kinases (of these 395 non-mutant kinases) (Homo sapiens, UniProt P49840); details: GSK3A; 10 μM
[2] = target: 456 kinases (of these 395 non-mutant kinases) (Homo sapiens, UniProt P11362); details: FGFR1; 10 μM
[3] = target: 456 kinases (of these 395 non-mutant kinases) (Homo sapiens, UniProt P10721, V559D/V654A); details: KIT(V559D,V654A); 10 μM
[4] = target: 456 kinases (of these 395 non-mutant kinases) (Homo sapiens, UniProt P08581, Y1235D); details: MET(Y1235D); 10 μM
[5] = target: 456 kinases (of these 395 non-mutant kinases) (Homo sapiens, UniProt O43293); details: DAPK3; 10 μM
[6] = target: 456 kinases (of these 395 non-mutant kinases) (Homo sapiens, UniProt P07949); details: RET; 10 μM
[7] = target: 456 kinases (of these 395 non-mutant kinases) (Homo sapiens, UniProt P48736); details: PIK3CG; 10 μM
[8] = target: 456 kinases (of these 395 non-mutant kinases) (Homo sapiens, UniProt P10721); details: 10 μM
[9] = target: 456 kinases (of these 395 non-mutant kinases) (Homo sapiens, UniProt Q04759); details: PRKCQ; 10 μM
[10] = target: 456 kinases (of these 395 non-mutant kinases) (Homo sapiens, UniProt Q9HAZ1); details: CLK4; 10 μM
[11] = target: 456 kinases (of these 395 non-mutant kinases) (Homo sapiens, UniProt Q12851); details: MAP4K2; 10 μM
[12] = target: 456 kinases (of these 395 non-mutant kinases) (Homo sapiens, UniProt P00519, H396P); details: 10 μM
[13] = target: 456 kinases (of these 395 non-mutant kinases) (Homo sapiens, UniProt Q9Y6M4); details: CSNK1G3; 10 μM
[14] = target: 456 kinases (of these 395 non-mutant kinases) (Homo sapiens, UniProt P27037); details: ACVR2A; 10 μM
[15] = target: 456 kinases (of these 395 non-mutant kinases) (Homo sapiens, UniProt P42336, Q546K); details: PIK3CA(Q546K); 10 μM
[16] = target: 456 kinases (of these 395 non-mutant kinases) (Homo sapiens, UniProt P68400); details: CSNK2A1; 10 μM
[17] = target: 456 kinases (of these 395 non-mutant kinases) (Homo sapiens, UniProt Q9NRM7); details: LATS2; 10 μM
[18] = target: 456 kinases (of these 395 non-mutant kinases) (Homo sapiens, UniProt P00533, G719S); details: EGFR(G719S); 10 μM
[19] = target: 456 kinases (of these 395 non-mutant kinases) (Homo sapiens, UniProt P54753); details: EPHB3; 10 μM
[20] = target: 456 kinases (of these 395 non-mutant kinases) (Homo sapiens, UniProt P36888, K663Q); details: FLT3(K663Q); 10 μM
[21] = target: 456 kinases (of these 395 non-mutant kinases) (Homo sapiens, UniProt P12931); details: SRC; 10 μM
[22] = target: 456 kinases (of these 395 non-mutant kinases) (Homo sapiens, UniProt P46734); details: MEK3; 10 μM
[23] = target: 456 kinases (of these 395 non-mutant kinases) (Homo sapiens, UniProt Q13555); details: CAMK2G; 10 μM
[24] = target: 456 kinases (of these 395 non-mutant kinases) (Homo sapiens, UniProt Q13627); details: DYRK1A; 10 μM
[25] = target: 456 kinases (of these 395 non-mutant kinases) (Homo sapiens, UniProt O43353); details: RIPK2; 10 μM
[26] = target: 456 kinases (of these 395 non-mutant kinases) (Homo sapiens, UniProt P51451); details: BLK; 10 μM
[27] = target: 456 kinases (of these 395 non-mutant kinases) (Homo sapiens, UniProt P49674); details: CSNK1E; 10 μM
[28] = target: 456 kinases (of these 395 non-mutant kinases) (Homo sapiens, UniProt P04629); details: TRKA; 10 μM
[29] = target: 456 kinases (of these 395 non-mutant kinases) (Homo sapiens, UniProt P52333); details: JAK3(JH1domain-catalytic); 10 μM
[30] = target: 456 kinases (of these 395 non-mutant kinases) (Homo sapiens, UniProt P42680); details: TEC; 10 μM
[31] = target: 456 kinases (of these 395 non-mutant kinases) (Homo sapiens, UniProt Q02779); details: MLK2; 10 μM

Sequence of 456 kinases (of these 395 non-mutant kinases) (Homo sapiens, UniProt P10721) (P10721 26-976 limits assumed, change not shown): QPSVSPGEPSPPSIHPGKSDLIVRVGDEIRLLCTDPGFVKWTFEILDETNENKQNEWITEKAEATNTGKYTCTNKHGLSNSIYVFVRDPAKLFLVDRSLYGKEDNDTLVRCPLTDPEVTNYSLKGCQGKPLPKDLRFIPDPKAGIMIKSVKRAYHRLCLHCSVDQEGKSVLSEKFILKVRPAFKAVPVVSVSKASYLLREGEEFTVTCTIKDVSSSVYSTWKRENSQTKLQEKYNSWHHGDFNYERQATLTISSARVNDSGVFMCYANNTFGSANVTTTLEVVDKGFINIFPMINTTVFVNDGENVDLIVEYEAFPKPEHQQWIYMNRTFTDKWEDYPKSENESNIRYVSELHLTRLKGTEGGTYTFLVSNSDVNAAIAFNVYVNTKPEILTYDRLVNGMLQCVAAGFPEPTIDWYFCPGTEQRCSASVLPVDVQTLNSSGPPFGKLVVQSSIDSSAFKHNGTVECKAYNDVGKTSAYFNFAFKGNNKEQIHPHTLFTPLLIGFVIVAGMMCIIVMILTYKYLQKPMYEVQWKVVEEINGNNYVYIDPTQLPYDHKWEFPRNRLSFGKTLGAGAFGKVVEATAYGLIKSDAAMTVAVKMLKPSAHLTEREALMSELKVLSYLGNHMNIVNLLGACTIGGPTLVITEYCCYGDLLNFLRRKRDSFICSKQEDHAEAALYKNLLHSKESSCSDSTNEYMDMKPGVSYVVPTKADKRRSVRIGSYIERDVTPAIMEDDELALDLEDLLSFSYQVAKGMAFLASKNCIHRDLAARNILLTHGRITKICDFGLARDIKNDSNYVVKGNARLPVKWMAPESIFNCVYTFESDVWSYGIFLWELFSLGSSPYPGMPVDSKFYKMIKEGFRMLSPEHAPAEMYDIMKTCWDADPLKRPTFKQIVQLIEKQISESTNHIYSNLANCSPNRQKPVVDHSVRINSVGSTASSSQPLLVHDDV
Sequence of 456 kinases (of these 395 non-mutant kinases) (Homo sapiens, UniProt P12931) (P12931 2-536 limits assumed, change not shown): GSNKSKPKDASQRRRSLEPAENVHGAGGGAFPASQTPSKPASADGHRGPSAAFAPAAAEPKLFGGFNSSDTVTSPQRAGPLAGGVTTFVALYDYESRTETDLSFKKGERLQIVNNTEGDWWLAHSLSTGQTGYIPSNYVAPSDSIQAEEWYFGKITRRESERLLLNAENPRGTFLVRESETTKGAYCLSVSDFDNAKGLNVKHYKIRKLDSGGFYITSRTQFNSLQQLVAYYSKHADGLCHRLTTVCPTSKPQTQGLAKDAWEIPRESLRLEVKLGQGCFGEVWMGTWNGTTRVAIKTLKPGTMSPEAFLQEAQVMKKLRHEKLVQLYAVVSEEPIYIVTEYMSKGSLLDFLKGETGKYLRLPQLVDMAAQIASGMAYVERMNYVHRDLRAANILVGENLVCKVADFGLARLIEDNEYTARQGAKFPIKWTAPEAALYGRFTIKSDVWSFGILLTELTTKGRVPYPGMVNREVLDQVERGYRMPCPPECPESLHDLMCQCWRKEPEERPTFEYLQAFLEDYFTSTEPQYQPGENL
Sequence of 456 kinases (of these 395 non-mutant kinases) (Homo sapiens, UniProt P10721, V559D/V654A) (P10721 26-976 V559D/V654A limits assumed): as the sequence (P10721 26-976 limits assumed, change not shown) above, with V534D, V629A counted along it
Sequence of 456 kinases (of these 395 non-mutant kinases) (Homo sapiens, UniProt P11362) (P11362 22-822 limits assumed, stated change not applied): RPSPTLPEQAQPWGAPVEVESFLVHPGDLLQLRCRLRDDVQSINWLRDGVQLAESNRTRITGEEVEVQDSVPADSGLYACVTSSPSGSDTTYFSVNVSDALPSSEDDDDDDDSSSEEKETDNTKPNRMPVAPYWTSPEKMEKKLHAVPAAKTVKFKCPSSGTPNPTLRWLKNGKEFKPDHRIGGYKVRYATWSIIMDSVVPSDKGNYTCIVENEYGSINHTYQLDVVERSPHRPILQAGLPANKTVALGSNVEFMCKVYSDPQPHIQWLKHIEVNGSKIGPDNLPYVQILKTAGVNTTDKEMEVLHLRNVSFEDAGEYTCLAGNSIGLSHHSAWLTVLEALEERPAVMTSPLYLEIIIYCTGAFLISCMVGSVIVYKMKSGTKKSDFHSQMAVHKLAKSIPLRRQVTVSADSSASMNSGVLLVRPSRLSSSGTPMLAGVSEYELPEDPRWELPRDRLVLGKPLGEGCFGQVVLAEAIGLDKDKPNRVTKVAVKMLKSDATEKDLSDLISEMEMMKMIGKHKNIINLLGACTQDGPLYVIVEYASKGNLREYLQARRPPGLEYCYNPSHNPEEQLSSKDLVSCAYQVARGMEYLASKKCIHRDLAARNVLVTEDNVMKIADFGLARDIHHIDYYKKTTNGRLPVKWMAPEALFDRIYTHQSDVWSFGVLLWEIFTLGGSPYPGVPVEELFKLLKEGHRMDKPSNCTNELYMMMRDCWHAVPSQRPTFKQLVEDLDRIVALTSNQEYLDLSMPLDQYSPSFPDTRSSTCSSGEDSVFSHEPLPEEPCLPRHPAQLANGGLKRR
Sequence of 456 kinases (of these 395 non-mutant kinases) (Homo sapiens, UniProt P04629) (P04629 33-796 limits assumed, change not shown): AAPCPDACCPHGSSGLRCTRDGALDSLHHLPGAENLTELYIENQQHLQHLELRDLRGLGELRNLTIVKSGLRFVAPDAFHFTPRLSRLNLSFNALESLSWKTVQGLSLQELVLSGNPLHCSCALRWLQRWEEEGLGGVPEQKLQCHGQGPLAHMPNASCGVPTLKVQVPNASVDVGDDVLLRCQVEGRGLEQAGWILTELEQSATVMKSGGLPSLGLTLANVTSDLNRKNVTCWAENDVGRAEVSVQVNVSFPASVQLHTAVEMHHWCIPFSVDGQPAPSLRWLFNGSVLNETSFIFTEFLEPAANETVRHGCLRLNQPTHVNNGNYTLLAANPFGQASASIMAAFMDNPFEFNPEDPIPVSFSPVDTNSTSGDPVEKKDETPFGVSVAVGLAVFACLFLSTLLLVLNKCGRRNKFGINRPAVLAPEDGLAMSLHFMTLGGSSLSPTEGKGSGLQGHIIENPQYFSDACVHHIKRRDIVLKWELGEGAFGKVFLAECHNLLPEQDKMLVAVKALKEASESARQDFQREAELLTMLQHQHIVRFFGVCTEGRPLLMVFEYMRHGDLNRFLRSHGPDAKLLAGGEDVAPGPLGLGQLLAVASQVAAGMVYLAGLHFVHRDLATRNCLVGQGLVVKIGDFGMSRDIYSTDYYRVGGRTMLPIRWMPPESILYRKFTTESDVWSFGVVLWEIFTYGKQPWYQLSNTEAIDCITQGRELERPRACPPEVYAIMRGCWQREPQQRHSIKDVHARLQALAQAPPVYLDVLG
Sequence of 456 kinases (of these 395 non-mutant kinases) (Homo sapiens, UniProt P07949) (P07949 29-1114 limits assumed, change not shown): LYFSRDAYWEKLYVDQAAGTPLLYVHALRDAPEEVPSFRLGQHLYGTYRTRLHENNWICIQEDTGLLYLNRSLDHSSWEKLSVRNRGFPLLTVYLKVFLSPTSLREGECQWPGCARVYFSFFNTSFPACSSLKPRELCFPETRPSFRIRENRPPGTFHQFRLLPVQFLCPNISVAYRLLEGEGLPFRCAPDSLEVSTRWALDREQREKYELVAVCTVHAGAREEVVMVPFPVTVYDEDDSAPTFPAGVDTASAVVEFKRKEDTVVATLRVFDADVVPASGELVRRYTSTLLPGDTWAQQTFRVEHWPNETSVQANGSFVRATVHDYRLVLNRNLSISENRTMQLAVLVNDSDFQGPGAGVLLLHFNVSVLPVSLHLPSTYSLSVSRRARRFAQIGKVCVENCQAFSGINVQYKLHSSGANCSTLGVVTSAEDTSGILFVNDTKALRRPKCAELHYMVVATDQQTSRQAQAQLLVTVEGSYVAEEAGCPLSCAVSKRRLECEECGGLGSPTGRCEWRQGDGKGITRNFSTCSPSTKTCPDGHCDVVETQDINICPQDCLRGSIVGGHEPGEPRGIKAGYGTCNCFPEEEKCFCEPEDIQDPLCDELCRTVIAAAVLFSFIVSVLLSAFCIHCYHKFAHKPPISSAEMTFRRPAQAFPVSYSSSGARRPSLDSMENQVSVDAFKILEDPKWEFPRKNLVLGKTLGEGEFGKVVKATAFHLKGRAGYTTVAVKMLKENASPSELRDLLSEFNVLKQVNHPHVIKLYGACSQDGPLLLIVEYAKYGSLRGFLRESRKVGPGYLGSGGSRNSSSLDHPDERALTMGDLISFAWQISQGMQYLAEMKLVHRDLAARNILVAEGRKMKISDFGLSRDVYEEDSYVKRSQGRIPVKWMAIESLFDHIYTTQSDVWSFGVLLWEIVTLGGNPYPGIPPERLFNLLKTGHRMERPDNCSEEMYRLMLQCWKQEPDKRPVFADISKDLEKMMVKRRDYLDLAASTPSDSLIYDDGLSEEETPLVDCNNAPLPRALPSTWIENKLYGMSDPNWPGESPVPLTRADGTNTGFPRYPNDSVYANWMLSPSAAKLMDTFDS
Sequence of 456 kinases (of these 395 non-mutant kinases) (Homo sapiens, UniProt P27037) (P27037 20-513 limits assumed, stated change not applied): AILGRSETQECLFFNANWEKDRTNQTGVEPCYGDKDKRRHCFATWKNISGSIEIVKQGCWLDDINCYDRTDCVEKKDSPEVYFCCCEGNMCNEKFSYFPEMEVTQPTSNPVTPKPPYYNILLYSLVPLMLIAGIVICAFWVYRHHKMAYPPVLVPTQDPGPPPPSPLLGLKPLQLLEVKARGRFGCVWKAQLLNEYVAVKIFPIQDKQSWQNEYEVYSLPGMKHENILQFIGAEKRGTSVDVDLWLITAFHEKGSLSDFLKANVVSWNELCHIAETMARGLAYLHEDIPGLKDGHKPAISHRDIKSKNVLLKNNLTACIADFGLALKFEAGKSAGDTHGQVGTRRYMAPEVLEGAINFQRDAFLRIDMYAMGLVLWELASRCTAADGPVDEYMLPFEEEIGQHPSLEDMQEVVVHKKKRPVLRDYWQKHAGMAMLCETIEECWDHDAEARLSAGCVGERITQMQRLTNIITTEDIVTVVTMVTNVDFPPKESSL

## CCc1ccccc1NC(=O)c1c(C)nsc1Nc1cnc2cc(F)ccc2n1 [Example 20, N-(2-Ethylphenyl)-5-[(6-fluoroquinoxalin-2-yl)amino]-3-methyl-1,2-thiazole-4-carboxamide]
[1]
  % Ctrl @ 10 μM: 68 % Ctrl
[2]
  % Ctrl @ 10 μM: 94 % Ctrl
[3]
  % Ctrl @ 10 μM: 96 % Ctrl
[4]
  % Ctrl @ 10 μM: 77 % Ctrl
[5]
  % Ctrl @ 10 μM: 72 % Ctrl
[6]
  % Ctrl @ 10 μM: 88 % Ctrl
[7]
  % Ctrl @ 10 μM: 99 % Ctrl
[8]; KIT-autoinhibited
  % Ctrl @ 10 μM: 100 % Ctrl
[8]; KIT
  % Ctrl @ 10 μM: 98 % Ctrl
[9]
  % Ctrl @ 10 μM: 76 % Ctrl
[10]
  % Ctrl @ 10 μM: 100 % Ctrl
[11]
  % Ctrl @ 10 μM: 99 % Ctrl
[12]; ABL1(H396P)-nonphosphorylated
  % Ctrl @ 10 μM: 100 % Ctrl
[12]; ABL1(H396P)-phosphorylated
  % Ctrl @ 10 μM: 92 % Ctrl
[13]
  % Ctrl @ 10 μM: 70 % Ctrl
[14]
  % Ctrl @ 10 μM: 94 % Ctrl
[15]
  % Ctrl @ 10 μM: 66 % Ctrl
[16]
  % Ctrl @ 10 μM: 85 % Ctrl
[17]
  % Ctrl @ 10 μM: 94 % Ctrl
[18]
  % Ctrl @ 10 μM: 97 % Ctrl
[19]
  % Ctrl @ 10 μM: 82 % Ctrl
[20]
  % Ctrl @ 10 μM: 75 % Ctrl
[21]
  % Ctrl @ 10 μM: 100 % Ctrl
[22]
  % Ctrl @ 10 μM: 100 % Ctrl
[23]
  % Ctrl @ 10 μM: 75 % Ctrl
[24]
  % Ctrl @ 10 μM: 100 % Ctrl
[25]
  % Ctrl @ 10 μM: 66 % Ctrl
[26]
  % Ctrl @ 10 μM: 100 % Ctrl
[27]
  % Ctrl @ 10 μM: 74 % Ctrl
[28]
  % Ctrl @ 10 μM: 100 % Ctrl
[29]
  % Ctrl @ 10 μM: 82 % Ctrl
[30]
  % Ctrl @ 10 μM: 100 % Ctrl
[31]
  % Ctrl @ 10 μM: 78 % Ctrl
